Data on two molecules can be found in the NIST ThermoML archive (doi:10.1021/je030231w).

Each structure is given as a SMILES string. “And” between values parts separate entries of the source, which are not always exact repeats. Equal values may be shown once. Numbers after ± are expanded uncertainties.

For data set [1] the following is noted: Crystal, Calculated from knudsen effusion weight loss.
Data set [2] in a line: mn = molality of the nth substance listed, in mol/kg. The following applies: 298 K, 101.3 kPa, Liquid.

With `O=c1[nH]cc(C(F)(F)F)c(=O)[nH]1` [5-(trifluoromethyl)uracil], the vapor or sublimation pressure (as a rule, the equilibrium pressure above the liquid or solid) in data set [1] (373.02 K) is 1.187e-05 ± 6e-07 kPa and 1.168e-05 ± 5.9e-07 kPa; in data set [1] (374.94 K), 1.376e-05 ± 7e-07 kPa; in data set [1] (378.75 K), 2.012e-05 ± 1e-06 kPa; in data set [1] (380.67 K), 2.417e-05 ± 1.2e-06 kPa; in data set [1] (382.54 K), 2.882e-05 ± 1.5e-06 kPa; in data set [1] (384.45 K), 3.348e-05 ± 1.7e-06 kPa. For the same molecule, the “vapor or sublimation pressure” value is 3.983e-05 ± 2e-06 kPa in data set [1] (386.35 K); 4.61e-05 ± 2.3e-06 kPa in data set [1] (388.25 K); 5.586e-05 ± 2.8e-06 kPa in data set [1] (390.15 K); 6.401e-05 ± 3.2e-06 kPa and 6.45e-05 ± 3.2e-06 kPa in data set [1] (392.01 K).

On to `O=c1[nH]cc(C(F)(F)F)c(=O)[nH]1` [5-(trifluoromethyl)uracil] + O, for which the mass density (commonly the mass of a sample divided by its volume) in data set [2] (m1 = 0.01034) worked out at 997.88 ± 0.2 kg/m3; in data set [2] (m1 = 0.01092) it was 997.938 ± 0.2 kg/m3; in data set [2] (m1 = 0.01101), 997.946 ± 0.19 kg/m3; in data set [2] (m1 = 0.01122), 997.96 ± 0.19 kg/m3; in data set [2] (m1 = 0.01187), 998.017 ± 0.19 kg/m3; in data set [2] (m1 = 0.01292), 998.089 ± 0.18 kg/m3.
